Blank lines part the entries; values can stand above or below the compound they belong to.
System: LG0703-F948-PDC complex spheroid viability
Experiment: Anticancer human tumor LG0703-F948-PDC patient-derived lung adenocarcinoma cell line growth inhibition [RAS]
Details: for IC50: curve of first compound; for viability, T/C: stronger effect = lower value
How it was run: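 Multi-cell-type spheroids: tumor cells plus HUVEC endothelial cells and mesenchymal stem cells. RAS-pathway inhibitors were combined with targeted agents, each dosed in half-log steps down from clinical Cmax, or from 10 microM when Cmax was unknown.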

[1] = second compound 0.000949 µM, first compound 0.0316 µM
[2] = second compound 0.000949 µM, first compound 0.1 µM
[3] = second compound 0.000949 µM, first compound 0.316 µM
[4] = second compound 0.000949 µM, first compound 1 µM
[5] = second compound 0.000949 µM, first compound 3.16 µM
[6] = second compound 0.000949 µM, first compound 10 µM
[7] = second compound 0.003 µM, first compound 0.0316 µM
[8] = second compound 0.003 µM, first compound 0.1 µM
[9] = second compound 0.003 µM, first compound 0.316 µM
[10] = second compound 0.003 µM, first compound 1 µM
[11] = second compound 0.003 µM, first compound 3.16 µM
[12] = second compound 0.003 µM, first compound 10 µM
[13] = second compound 0.00949 µM, first compound 0.0316 µM
[14] = second compound 0.00949 µM, first compound 0.1 µM
[15] = second compound 0.00949 µM, first compound 0.316 µM
[16] = second compound 0.00949 µM, first compound 1 µM
[17] = second compound 0.00949 µM, first compound 3.16 µM
[18] = second compound 0.00949 µM, first compound 10 µM
[19] = second compound 0.03 µM, first compound 0.0316 µM
[20] = second compound 0.03 µM, first compound 0.1 µM
[21] = second compound 0.03 µM, first compound 0.316 µM
[22] = second compound 0.03 µM, first compound 1 µM
[23] = second compound 0.03 µM, first compound 3.16 µM
[24] = second compound 0.03 µM, first compound 10 µM
[25] = second compound 0.0949 µM, first compound 0.0316 µM
[26] = second compound 0.0949 µM, first compound 0.1 µM
[27] = second compound 0.0949 µM, first compound 0.316 µM
[28] = second compound 0.0949 µM, first compound 1 µM
[29] = second compound 0.0949 µM, first compound 3.16 µM
[30] = second compound 0.0949 µM, first compound 10 µM
[31] = second compound 0.3 µM, first compound 0.0316 µM
[32] = second compound 0.3 µM, first compound 0.1 µM
[33] = second compound 0.3 µM, first compound 0.316 µM
[34] = second compound 0.3 µM, first compound 1 µM
[35] = second compound 0.3 µM, first compound 3.16 µM
[36] = second compound 0.3 µM, first compound 10 µM
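Note: spheroids exposed to agents for 7 days.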
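Throughout, for viability, T/C: 100% = DMSO vehicle wells.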

- IC50 (second compound 0.000949 µM): < 31.6 nM
- IC50 (second compound 0.003 µM): < 31.6 nM
- IC50 (second compound 0.00949 µM): < 31.6 nM
- IC50 (second compound 0.03 µM): < 31.6 nM
- IC50 (second compound 0.0949 µM): < 31.6 nM
- IC50 (second compound 0.3 µM): < 31.6 nM
Compound: CC(=O)OC12COC1CC(O)C1(C)C(=O)C(O)C3=C(C)C(OC(=O)C(O)C(NC(=O)OC(C)(C)C)c4ccccc4)CC(O)(C(OC(=O)c4ccccc4)C21)C3(C)C (stereo unspecified) + CCn1c(-c2cc(N3CCN(C)CC3)cnc2C(C)OC)c2c3cc(ccc31)-c1csc(n1)CC(NC(=O)C1CC1C)C(=O)N1CCCC(N1)C(=O)OCC(C)(C)C2
- viability, T/C [1]: 37.4%
- viability, T/C [2]: 33.5%
- viability, T/C [3]: 37.2%
- viability, T/C [4]: 30.1%
- viability, T/C [5]: 25.9%
- viability, T/C [6]: 19.9%
- viability, T/C [7]: 23.8%
- viability, T/C [8]: 17%
- viability, T/C [9]: 23%
- viability, T/C [10]: 15.7%
- viability, T/C [11]: 12.3%
- viability, T/C [12]: 14.2%
- viability, T/C [13]: 11.2%
- viability, T/C [14]: 13.6%
- viability, T/C [15]: 12.8%
- viability, T/C [16]: 12%
- viability, T/C [17]: 7.75%
- viability, T/C [18]: 7.15%
- viability, T/C [19]: 6.77%
- viability, T/C [20]: 7.29%
- viability, T/C [21]: 9.54%
- viability, T/C [22]: 7.24%
- viability, T/C [23]: 6.73%
- viability, T/C [24]: 4.63%
- viability, T/C [25]: 7.39%
- viability, T/C [26]: 5.34%
- viability, T/C [27]: 4.2%
- viability, T/C [28]: 4.62%
- viability, T/C [29]: 4%
- viability, T/C [30]: 2.6%
- viability, T/C [31]: 9.13%
- viability, T/C [32]: 5.01%
- viability, T/C [33]: 3.87%
- viability, T/C [34]: 4.26%
- viability, T/C [35]: 3.58%
- viability, T/C [36]: 2.37%

- IC50 (second compound 0.000949 µM): 548 nM
- IC50 (second compound 0.003 µM): 337 nM
- IC50 (second compound 0.00949 µM): 402 nM
- IC50 (second compound 0.03 µM): 390 nM
- IC50 (second compound 0.0949 µM): 140 nM
- IC50 (second compound 0.3 µM): < 31.6 nM
Compound: Cc1nc(N2CCC3(CC2)COC(C)C3N)c(CO)nc1Sc1ccnc(N)c1Cl (stereo unspecified) + CCn1c(-c2cccnc2C(C)OC)c2c3cc(ccc31)N1CCOC(CC(NC(=O)C(C(C)C)N(C)C(=O)C3(F)CCN(C(=O)C#CC(C)(C)N(C)C)CC3)C(=O)N3CCCC(N3)C(=O)OCC(C)(C)C2)C1
- viability, T/C [1]: 100%
- viability, T/C [2]: 68.4%
- viability, T/C [3]: 61.6%
- viability, T/C [4]: 43.1%
- viability, T/C [5]: 24.8%
- viability, T/C [6]: 13%
- viability, T/C [7]: 87.8%
- viability, T/C [8]: 76%
- viability, T/C [9]: 47.8%
- viability, T/C [10]: 31.7%
- viability, T/C [11]: 24.4%
- viability, T/C [12]: 11.9%
- viability, T/C [13]: 93.1%
- viability, T/C [14]: 74.8%
- viability, T/C [15]: 52.7%
- viability, T/C [16]: 36.9%
- viability, T/C [17]: 21.5%
- viability, T/C [18]: 13.6%
- viability, T/C [19]: 70.2%
- viability, T/C [20]: 58.6%
- viability, T/C [21]: 52.1%
- viability, T/C [22]: 42.4%
- viability, T/C [23]: 16.9%
- viability, T/C [24]: 12.7%
- viability, T/C [25]: 73.2%
- viability, T/C [26]: 56.8%
- viability, T/C [27]: 35.2%
- viability, T/C [28]: 23.2%
- viability, T/C [29]: 13.5%
- viability, T/C [30]: 5.55%
- viability, T/C [31]: 34.1%
- viability, T/C [32]: 26.7%
- viability, T/C [33]: 22.8%
- viability, T/C [34]: 14.3%
- viability, T/C [35]: 6.25%
- viability, T/C [36]: 3.6%

- IC50 (second compound 0.00316 µM): > 10000 nM
- IC50 (second compound 0.01 µM): > 10000 nM
- IC50 (second compound 0.0316 µM): > 10000 nM
- IC50 (second compound 0.1 µM): > 10000 nM
- IC50 (second compound 0.316 µM): > 10000 nM
- IC50 (second compound 1 µM): > 10000 nM
Compound: C[C@@H](NC(=O)c1ncnc(N)c1Cl)c1ncc(C(=O)Nc2cc(C(F)(F)F)c(Cl)cn2)s1 + C=CC(=O)N1CCN(c2nc(OCC3CCCN3C)nc3c(F)c(-c4nc(N)cc(C)c4C(F)(F)F)c(Cl)cc23)C(C)C1
- viability, T/C (second compound 0.00316 µM, first compound 0.0316 µM): 99.4%
- viability, T/C (second compound 0.00316 µM, first compound 0.1 µM): 100%
- viability, T/C (second compound 0.00316 µM, first compound 0.316 µM): 107%
- viability, T/C (second compound 0.00316 µM, first compound 1 µM): 110%
- viability, T/C (second compound 0.00316 µM, first compound 3.16 µM): 104%
- viability, T/C (second compound 0.00316 µM, first compound 10 µM): 93%
- viability, T/C (second compound 0.01 µM, first compound 0.0316 µM): 113%
- viability, T/C (second compound 0.01 µM, first compound 0.1 µM): 103%
- viability, T/C (second compound 0.01 µM, first compound 0.316 µM): 107%
- viability, T/C (second compound 0.01 µM, first compound 1 µM): 111%
- viability, T/C (second compound 0.01 µM, first compound 3.16 µM): 109%
- viability, T/C (second compound 0.01 µM, first compound 10 µM): 97.2%
- viability, T/C (second compound 0.0316 µM, first compound 0.0316 µM): 103%
- viability, T/C (second compound 0.0316 µM, first compound 0.1 µM): 109%
- viability, T/C (second compound 0.0316 µM, first compound 0.316 µM): 95.8%
- viability, T/C (second compound 0.0316 µM, first compound 1 µM): 102%
- viability, T/C (second compound 0.0316 µM, first compound 3.16 µM): 121%
- viability, T/C (second compound 0.0316 µM, first compound 10 µM): 95.2%
- viability, T/C (second compound 0.1 µM, first compound 0.0316 µM): 106%
- viability, T/C (second compound 0.1 µM, first compound 0.1 µM): 109%
- viability, T/C (second compound 0.1 µM, first compound 0.316 µM): 113%
- viability, T/C (second compound 0.1 µM, first compound 1 µM): 109%
- viability, T/C (second compound 0.1 µM, first compound 3.16 µM): 118%
- viability, T/C (second compound 0.1 µM, first compound 10 µM): 95.2%
- viability, T/C (second compound 0.316 µM, first compound 0.0316 µM): 118%
- viability, T/C (second compound 0.316 µM, first compound 0.1 µM): 105%
- viability, T/C (second compound 0.316 µM, first compound 0.316 µM): 108%
- viability, T/C (second compound 0.316 µM, first compound 1 µM): 114%
- viability, T/C (second compound 0.316 µM, first compound 3.16 µM): 117%
- viability, T/C (second compound 0.316 µM, first compound 10 µM): 100%
- viability, T/C (second compound 1 µM, first compound 0.0316 µM): 115%
- viability, T/C (second compound 1 µM, first compound 0.1 µM): 116%
- viability, T/C (second compound 1 µM, first compound 0.316 µM): 118%
- viability, T/C (second compound 1 µM, first compound 1 µM): 132%
- viability, T/C (second compound 1 µM, first compound 3.16 µM): 129%
- viability, T/C (second compound 1 µM, first compound 10 µM): 98.3%

Reference: PubChem BioAssay AID2060890 (Molecular Pharmacology Branch, DTP, NCI, 2025)
